“Also recorded” adds a separate entry of the source. Like-named read-outs stand apart in the source and are kept apart here.
Key:
male NMRI mice [1] = experiment: Muscle relaxant effect (inclined screen according to Hoppe); assay type: in vivo; conditions: ip.; for ED50: Mus musculus, determined at the time of maximal effect; for Muscle relaxant effect duration: time of last reading when the effect was at least 30%
Experimental: The assay was done according to Hoppe in male NMRI mice weighing 20 to 25 g, with 10 animals in each group /Hoppe, J. O., J. Pharmacol. Exp. Ther., 100, 333 (1950)/. Following the ip. treatment of animals, the number of mice showing muscle weakness were recorded at every 10 minutes in the first hour and at half hour intervals afterwards. The animals falling off the 60° inclined screen within 30 seconds were considered positive. ED50 values of the given compounds were determined at each time. The duration of effect was defined as the time of last reading when the effect was at least 30%.

AMPA/kainate receptors [2] = experiment: QNTI (inhibition of quisqualate neurotoxicity) test; assay type: cell-based, rat; conditions: Inhibition of quisqualate neurotoxicity in primer cortical culture
Experimental: QNTI (inhibition of quisqualate neurotoxicity (test)
The method is based on the phenomenon that the neurotixic effect of quisqualate /i.e. (S)-alpha-amino-3,5-dioxo-1,2,4-oxadiazolidine-2-propanoic acid, an AMPA/kainate agonist/ on the primer telencephalic cell culture of the rat could be inhibited by AMPA/kainate antagonists. The test was performed as described in the literature /Kovács, A. D., Egyed, A.: Protection against non-NMDA receptor-mediated excitotoxicity by GYKI 52466 in mature telencephalic cultures of the rat, Neurobiology, 4, 59-72 (1996)/.

AMPA/kainate receptors [3] = experiment: PSI (inhibition of population spike) test in CA1 neurones of hippocampus; assay type: cell-based; conditions: non-cumulative IC50, rat hippocampus
Experimental: PSI (inhibition of population spike) test
The field potentials (population spike) evoked by electric stimulation of the Shaffer collateral comissural pathway were measured in the CAl neurones of rat hippocampus. The population spike can be inhibited by AMPA/kainate antagonists. The non-cumulative IC50 values are shown in Table I. /Tarnawa, I., Molnár, P., Gaál, L., Andrási, F.: Inhibition of hippocampal field potentials by GYKI 52466 in vitro and in vivo, Acta Physiol. Hung., 79(2), 163-9 (1992)/.

Acute toxicity = conditions: both sexes, mouse, in vivo
Experimental: The study was done in NMRI mice of both sexes, weighing 20 to 25 g, with 6 animals in each dose-group. The test compounds were applied at […], and the maximal per os and ip. doses were 500 mg/kg and 300 mg/kg, respectively. The cumulative lethality was recorded on day 7. The animals were kept under standard laboratory conditions.

male DBA/2j strain mice = experiment: Audiogenic seizure (AS) test; assay type: in vivo; conditions: for ED50: Mus musculus, 0.25 h
Experimental: Audiogenic seizure (AS) test
The experiments were carried out by the slightly modified method of De Sarro et al. /De Sarro, G. B., Croucher, M. J. and Meldrum, B. S.: Anticonvulsant action of DS 103-282, Neuropharm., 23, 525 (1984)/. Groups of 8 male DBA/2j strain mice weighing 7 to 14 g were treated ip. with the test substance in 10 ml/kg volume. 15 minutes later, the animals were placed into a covered glass container (30 cm in diameter) and exposed to a 14 kHz 120 dB tone for 60 s at the most. Seizure response was assessed using the following scale: 0=normal behaviour, 1=wild running, 2=clonus, 3=tonic flexor seizure, 4=tonic extensor seizure. The maximum response during the 60 s exposure was recorded for each animal. Lethality was also noted. The ED50 values were determined by the method of Litchfield and Wilcoxon concerning the inhibition of clonic seizures and tonic extensor convulsions.

male NMRI mice [4] = experiment: Global ischemia induced by magnesium chloride (gasping time); assay type: in vivo; conditions: for Effect in % (increase in gasping time): dose 30 mg/kg ip., 30 minutes before magnesium chloride iv.; for ID50 ip.: gasping time, calculated by linear regression
Experimental: Global Ischemia Induced by Magnesium Chloride
The experiments were carried out as described by Berga et al. /Berga, P., Beckett, P. R., Roberts, D. J., Llenas, J., Massingham, R.: Synergistic interactions between piracetam and dihydroergocristine in some animal models of cerebral hypoxia and ischemia, Arzneim.-Forsch., 36, 1314-1320 (1986)/. Groups of 10 male NMRI mice weighing 20 to 25 g were treated ip. with the test substance in […]. After 30 minutes, saturated aqueous magnesium chloride solution was applied iv. (5 ml/kg) resulting in an immediate cardiac arrest. The elapsed time between the iv. injection and the last gasping was measured (gasping time). The means of the treated groups were expressed as percent of control. Statistical analysis was done by ANOVA followed by DUNCAN test. The dose resulting in 50% descrease in gasping time (ID50) was calculated by linear regression.

male NMRI mice [5] = experiment: Maximal electroshock test (MES); assay type: in vivo; conditions: Inhibition of maximal electroshock, ip., 30 minutes before shock; for ED50: Mus musculus
Experimental: Maximal electroshock test (MES)
Male NMRI mice weighing 20 to 30 g were used for the method of Swinyard et al. /Swinyard, E. A., Brown, W. C. and Goodman, L.S.: Comparative assays of antiepileptic drugs in mice and rats, J. Pharmacol., 106, 319 (1952)//. The animals—10 in each group—were treated ip. either with various doses of the test substance or with vehicle. After 30 minutes, a 50 Hz, 40 mA electroshock was applied for 0.4 s through corneal electrodes. The number of animals that developed tonic extensor convulsion of the hind-limbs was registered, percent inhibition was calculated, and ED50 values were determined by the method of Litchfield and Wilcoxon /Litchfield, J. T., Wilcoxon, F. A.: A simplified method of evaluating dose-effect experiments, J. Pharmacol. Exp. Ther., 96, 99 (1949)/ and summarized in Table IV.

| Structure (SMILES) | ED50 (male NMRI mice [1]) [mg/kg] | Muscle relaxant effect duration (male NMRI mice [1]) | IC50 (AMPA/kainate receptors [2]) [µM] | IC50 (AMPA/kainate receptors [3]) [µM] | Effect in % (increase in gasping time) (male NMRI mice [4]) [%] | ID50 ip. (male NMRI mice [4]) [mg/kg] | further results |
| --- | --- | --- | --- | --- | --- | --- | --- |
| CC1(C#N)Cc2cc3c(cc2C(c2ccc([N+](=O)[O-])cc2)=NN1)OCO3 (racemic) [Example 58, (±)-8-Cyano-7,8-dihydro-8-methyl-5-(4-nitrophenyl)-9H-1,3-dioxolo/4,5-h//2,3/benzodiazepine] | – | – | – | – | – | – | melting point: 162 to 164 °C |
| CC1(C#N)Cc2cc3c(cc2C(c2ccc([N+](=O)[O-])cc2)=NN1C(=O)CCl)OCO3 (racemic) [Example 73, (±)-8-Cyano-7,8-dihydro-7-chloroacetyl-8-methyl-5-(4-nitrophenyl)-9H-1,3-dioxolo/4,5-h//2,3/benzodiazepine] | 22.6 | substantially longer; also recorded: higher than 4 hr | 7.4 | 6.3 | – | – | LD50 at 7 day (Acute toxicity; NMRI, ip, 300 mg/kg): ~300 mg/kg; LD50 at 7 day (Acute toxicity; NMRI, po, 500 mg/kg): > 500 mg/kg |
| CC1(C#N)Cc2cc3c(cc2C(c2ccc(N)cc2)=NN1C(=O)CCNCCN1CCOCC1)OCO3 (racemic) [Example 89, (±)-5-(4-Aminophenyl)-8-cyano-7,8-dihydro-8-methyl-7-/3-(2-morpholinoethylamino)-propionyl/-9H-1,3-dioxolo/4,5-h//2,3/-benzodiazepine] | 31.3 | 1 h | 5.4 | 3 | 117 | 7 | AS convulsion tonic ED50 (male DBA/2j strain mice; Inhibition of sound induced seizure, tonic extensor convulsions, DBA/2j mice, ip., 15 minutes): The compound according to Example 89 was significantly more effective at the inhibition of maximal electroshock and sound induced tonic convulsions than the reference compound “A” as shown in Table TV.; ED50 (male DBA/2j strain mice; Inhibition of sound induced seizure, clonic seizures, DBA/2j mice, ip., 15 minutes, read-out: AS convulsion clonic ED50): 5.4 mg/kg; ED50 (male DBA/2j strain mice; Inhibition of sound induced seizure, tonic extensor convulsions, DBA/2j mice, ip., 15 minutes, read-out: AS convulsion tonic ED50): 1.2 mg/kg; MES ED50 (male NMRI mice [5]): The compound according to Example 89 was significantly more effective at the inhibition of maximal electroshock and sound induced tonic convulsions than the reference compound “A” as shown in Table TV.; ED50 (male NMRI mice [5]): 2.3 mg/kg; LD50 at 7 day (Acute toxicity; NMRI, ip, 300 mg/kg): ~300 mg/kg; LD50 at 7 day (Acute toxicity; NMRI, po, 500 mg/kg): > 500 mg/kg |
| NC(=O)C1=NN=C(c2ccc(N)cc2)c2cc3c(cc2C1)OCO3 [Example 32, 5-(4-Aminophenyl)-9H-1,3-dioxolo/4,5-h//2,3/benzodiazepine-8-carboxylic amide] | – | – | – | – | – | – | MES ED50 (male NMRI mice [5]): 2.5 mg/kg |
| N#CC1=NN=C(c2ccc(N)cc2)c2cc3c(cc2C1)OCO3 [Example 47, 5-(4-Aminophenyl)-8-cyano-9H-1,3-dioxolo/4,5-h//2,3/benzodiazepine] | – | – | – | – | 89 | 15 | – |
| Nc1ccc(C2=NN=C(c3nnn[nH]3)Cc3cc4c(cc32)OCO4)cc1 [Example 48, 5-(4-Aminophenyl)-8-(5-tetrazolyl)-9H-1,3-dioxolo/4,5-h//2,3/benzodiazepine] | – | – | – | – | – | – | melting point: 244 to 246 °C |
| CC1=NN=C(c2ccc(N)cc2)c2cc3c(cc2C1)OCO3 [“A”, 8-Methyl-5-(4-aminophenyl)-9H-1,3-dioxolo/4,5-h/-/2,3/benzodiazepine, reference compound] | 24.5 | 1 h | 12 | 9.1 | 55 | 30 | ED50 (male DBA/2j strain mice; ip, read-out: AS convulsion clonic ED50): 4.3 mg/kg; ED50 (male DBA/2j strain mice; ip, read-out: AS convulsion tonic ED50): 3.6 mg/kg; ED50 (male NMRI mice [5]): 6.9 mg/kg; LD50 at 7 day (Acute toxicity; po, NMRI mice, p.o., cumulative lethality on day 7, maximal dose 500 mg/kg, read-out: Appr. LD50 p.o.): 500 mg/kg; LD50 at 7 day (Acute toxicity; NMRI mice, ip., cumulative lethality on day 7, maximal dose 300 mg/kg, read-out: Appr- LD50 ip.): 392 mg/kg |

From patent US6562810B1, “8-substituted-9H-1,3-dioxolo/4,5-h//2,3/benzodiazepine derivatives, as AMPA/kainate receptor inhibitors” (Egis Gyogyszergyar RT., priority 1997, dated 2003)
